The source of these data is PubChem BioAssay (NCI).

For orientation: TGI means the concentration giving total growth inhibition. Low readings indicate more potent growth arrest, high ones less potent growth arrest. Usually GI50 stands for the concentration giving 50% growth inhibition.

Where “and” joins values, the source holds several entries; their conditions need not be identical. Identical values can stand only once.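 The compound was tested at five concentrations on cells cultured in 96-well plates, with a 48-hour exposure period. GI50: concentration for 50% inhibition of growth. The concentration for full growth arrest is given as TGI.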

Test systems include LOX IMVI melanoma; ACHN renal; HCT-116 colon; SNB-19 CNS; NCI-H522 lung; SN12C renal; SW-620 colon; OVCAR-4 ovarian; NCI/ADR-RES ovarian; HS 578T breast; EKVX NSCLC; HOP-18 NSCLC; M19-MEL melanoma; KM20L2 colon.
Experiment in all cases: DTP human tumour cell line panel, 48 h

Turning to `COc1cc(-c2c(C#N)c(N)c(C#N)c3c2COc2ccccc2-3)cc(OC)c1OC`, the TGI with LOX IMVI melanoma is over 100 µM; in the assay on ACHN renal it was over 100 µM; with HCT-116 colon it was over 100 µM; in the assay on SNB-19 CNS, over 43.5 µM; in the assay with NCI-H522 lung, over 100 µM; with SN12C renal, over 84.4 µM. The TGI with SW-620 colon was over 100 µM; in the assay on OVCAR-4 ovarian, over 64.8 µM; in the assay with NCI/ADR-RES ovarian it was over 100 µM; with HS 578T breast it was 39.7 µM; in the assay with EKVX NSCLC, over 69.4 µM.

For `c1ccc(C(c2ccccc2)[P+](c2ccccc2)(c2ccccc2)c2ccccc2)cc1`, the TGI with HOP-18 NSCLC was 2.74 µM; in the assay on LOX IMVI melanoma, 1.52 µM; with HCT-116 colon, 5.02 µM; with SNB-19 CNS, 10 µM; in the assay on NCI-H522 lung it was 1.14 µM; with SN12C renal it was 11.7 µM. Moreover, the TGI with SW-620 colon was 13.2 µM; in the assay with M19-MEL melanoma it was 9.69 µM; in the assay on OVCAR-4 ovarian, 10 µM; in the assay with NCI/ADR-RES ovarian, over 100 µM; with KM20L2 colon it was 11.8 µM; in the assay on EKVX NSCLC, 50.4 µM.

For `CCCCCCCCCCCCCCCC[N+](C)(C)CCN(Cc1ccc(OC)cc1)c1ncccn1`, the GI50 with LOX IMVI melanoma is 1.17 µM; in the assay with ACHN renal, 8.54 µM; with OVCAR-4 ovarian, 1.85 µM; in the assay on NCI/ADR-RES ovarian, 18.7 µM and 3.94 µM; in the assay on HS 578T breast, 1.76 µM; in the assay on EKVX NSCLC, 1.89 µM. The TGI was 3.33 µM with LOX IMVI melanoma; 32.9 µM with ACHN renal; 4.88 µM in the assay with OVCAR-4 ovarian; 64 µM and > 100 µM in the assay on NCI/ADR-RES ovarian; 4.4 µM in the assay on HS 578T breast; 7.52 µM in the assay on EKVX NSCLC.

As to `C=CCOC1OC(CS(=O)(=O)O)C(O)C(O)C1O` (stereo not given), the TGI with LOX IMVI melanoma, in the assay with HCT-116 colon, in the assay with SNB-19 CNS, in the assay on SN12C renal, with SW-620 colon and in the assay on OVCAR-4 ovarian was over 100 µM in each case. Also, the TGI in the assay with NCI/ADR-RES ovarian and in the assay with HS 578T breast was over 100 µM throughout.

As for `CS/C(=N\C(=S)Nc1ccccc1)Nc1ccccc1`, the TGI in the assay on LOX IMVI melanoma was 38.2 µM; in the assay with ACHN renal, 70.7 µM; with SNB-19 CNS, 94.6 µM; in the assay on NCI-H522 lung it was 38 µM; with SN12C renal it was 67.6 µM; in the assay on SW-620 colon, over 100 µM. Besides, the TGI in the assay with M19-MEL melanoma was 81 µM; in the assay with OVCAR-4 ovarian it was over 100 µM; in the assay on KM20L2 colon, over 100 µM.

For the molecule `O=C(c1ccccc1)[C@H]1Nc2ccc(Cl)cc2[C@H]2OCCC[C@@H]12`, the TGI with HOP-18 NSCLC amounted to 55.7 µM; in the assay with LOX IMVI melanoma, 31.2 µM; in the assay with ACHN renal, 93.5 µM; with HCT-116 colon it was 31.5 µM; in the assay on SNB-19 CNS, 90.3 µM; in the assay with NCI-H522 lung it was 36.8 µM. Further, the TGI with SN12C renal was 37.5 µM; with SW-620 colon, 39.1 µM; in the assay with M19-MEL melanoma, 49.1 µM; in the assay with OVCAR-4 ovarian it was 45 µM; with KM20L2 colon it was 39.4 µM; in the assay with EKVX NSCLC, 50.4 µM.

In the case of `FC(F)(F)C(C1=NC(C(F)(F)F)(C(F)(F)F)N=C(N2CCOCC2)O1)C(F)(F)F`, the TGI was 63.8 µM in the assay on LOX IMVI melanoma; 49.3 µM with ACHN renal; over 100 µM in the assay on HCT-116 colon; over 100 µM in the assay with SNB-19 CNS; 46.2 µM in the assay on NCI-H522 lung; 36.1 µM in the assay on SN12C renal. The TGI was 41.9 µM in the assay on SW-620 colon; 66.1 µM with OVCAR-4 ovarian; 49.4 µM with NCI/ADR-RES ovarian; over 100 µM in the assay with HS 578T breast; 61.3 µM in the assay with EKVX NSCLC.

Turning to `COc1ccc(C2C(=O)C(Cl)N2Nc2nc(C)cc(=O)[nH]2)cc1OC` (stereo not given), the TGI is 53.7 µM in the assay with HOP-18 NSCLC; over 100 µM with LOX IMVI melanoma; over 100 µM with ACHN renal; over 100 µM in the assay on HCT-116 colon; over 100 µM in the assay on SNB-19 CNS; 94.2 µM with SN12C renal. Moreover, the TGI in the assay with SW-620 colon, in the assay with M19-MEL melanoma, in the assay on OVCAR-4 ovarian, in the assay on KM20L2 colon and in the assay with EKVX NSCLC was over 100 µM throughout.

In the case of `Nc1ccc(C2NC(=O)Cc3c2ccc2ccccc32)cc1` (stereo not given), the TGI with LOX IMVI melanoma, in the assay on ACHN renal, in the assay on HCT-116 colon, with SNB-19 CNS, in the assay on NCI-H522 lung and with SW-620 colon was over 100 µM in each case. The TGI in the assay with OVCAR-4 ovarian, in the assay with HS 578T breast and in the assay on EKVX NSCLC was over 100 µM in each case.
